From US8772540B2, “Thermal responsive molecule” (Kyushu University, National University Corporation, priority 2009, dated 2014)

Tests used:
[1] = Fluorescent spectrum: incorporation of hydrophobic environmental probe ANS-Na into hydrogel; assay type: physicochemical; settings: 10 μM ANS-Na, 1 mM Eg3C8U aqueous solution
Procedure: Using ANS-Na (8-anilino-1-naphthalene sulfonic acid sodium salt) known as a hydrophobic environmental probe, the hydrogel was tested for incorporation of a fluorescent substance thereinto.

[2] = Confirmation of formation of hydrogel (gelling when heated in water); assay type: physicochemical
Procedure: Two ml of deionized water was added to 1 mg of the compound (8), which was dissolved by ultrasonication with cooling in an ice bath. With gradually heating up to room temperature, this was statically left as such for 30 minutes.

Question: Which “fluorescence of ANS-Na in hydrogel versus aqueous solution” value [1] does the source give for `COCCOCCOCCOCCCCCCNC(=O)Nc1cc(NC(=O)NCCCCCCOCCOCCOCCOC)cc(NC(=O)NCCCCCCOCCOCCOCCOC)c1` [compound (8), 1,1′,1″-(benzene-1,3,5-triyl)tris{3-(2,5,8,11-tetraoxaheptadecan-17-yl)urea}] here?
Answer: fluorescent intensity increased in the hydrogel and was shifted to the short wavelength side

Question: What about the hydrogel formation ([2]; 1 mg in 2 ml deionized water, transparent solution at 0° C., heated up to room temperature, left 30 minutes) of the same molecule?
Answer: formed a hydrogel

Question: What about the lowermost gelling concentration ([2]; in water, gels when heated) of the same molecule?
Answer: 0.05 wt. %
